Measurements taken from patent publication US20220175777A1, “Inhibitors of Multidrug Resistance Transporter P-Glycoprotein” (Southern Methodist University, priority 2014, published 2022).

What was measured:
HFL1 = experiment: Intrinsic toxicity, MTT survival; format: cell-based; conditions: Homo sapiens, 48 hours, ± standard error
Method: Percent survival determined by MTT assay calculated relative to cells treated with equal volume DMSO vehicle and represent the mean±SEM from 2-4 separate studies, each study performed in triplicate wells.
The intrinsic in vitro toxicities of identified compounds were evaluated to determine their potential therapeutic window. This was assessed in a noncancerous cell line (HFL1) and the human prostate cancer cell lines DU145 and the MDR sub-line DU145TxR. The potential toxicity of the compounds were assessed at concentrations that centered around 25 μM.

DU145-TxR = experiment: Re-sensitization to Paclitaxel or Doxorubicin at 25 μM compound (MTT); format: cell-based, human; conditions: 48 hours
Method: FIGS. 3A-3B are plots that show an example of the re-sensitization of a multidrug resistant prostate cancer cell line to two different chemotherapeutics using the prostate cancer derived cell line, DU145 and the multidrug-resistant variant, DU145-TxR. […] Cell viability was measured by the MTT (3-(4,5-dimethylthiazol-2-yl)-2,5-diphenyl tetrazolium bromide assay conducted as described previously. After 48 hours of treatment with Paclitaxel or Doxorubicin alone or in the presence of 25 μM compound 29, 34, or 45 media was removed and cells were washed twice with phosphate buffered saline (PBS) and MTT assay was conducted 24 hours later. Data expressed as mean±SEM.

[1] = target: T1, Cysteineless Mouse MDR3 P-glycoprotein (Mus musculus, UniProt P21447, C1070A/C1121A/C1223A/C133A/C427A/C638A/C669A/C713A/C952A); experiment: SL-ATP binding to P-gp by ESR spectroscopy; conditions: 50 microM inhibitor compound
T1 construct: made in house; host or cells: Pichia pastoris
Procedure, shortened: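 Cysteine-free mouse P-gp (30–50 microM) incubated with 50 microM inhibitor, then titrated with spin-labelled ATP analogue SL-ATP. Bound SL-ATP calculated from high-field ESR signal of free SL-ATP versus no-protein control, giving binding stoichiometry and affinity; at least 3 studies on 3–5 P-gp preparations.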

A2780 = experiment: Hyper-sensitization of ovarian cancer cells to doxorubicin; format: cell-based; conditions: not chemotherapy resistant A2780
Text: Hyper-sensitization of cancers to chemotherapeutics. […] The sensitivity of normal, not chemotherapy resistant A2780 ovarian cancer cell lines to doxorubicin was increased by several orders of magnitude in these assays.

[2] = target: T1, Cysteineless Mouse MDR3 P-glycoprotein; experiment: ATP hydrolysis by purified P-glycoprotein, basal and verapamil-stimulated; format: biochemical
Procedure, shortened: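 Cysteine-less mouse MDR3 P-gp (all Cys→Ala), expressed in Pichia pastoris and stabilised with phosphatidyl choline, was pre-incubated with compounds at 37 °C. ATP hydrolysis (2 mM ATP final, 20 min) measured via pyruvate kinase/lactate dehydrogenase-coupled NADH oxidation, with and without verapamil stimulation.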

[3] = target: T1, Cysteineless Mouse MDR3 P-glycoprotein; conditions: cited from earlier work

T1 sequence (P21447 whole entry C133A/C427A/C638A/C669A/C713A/C952A/C1070A/C1121A/C1223A): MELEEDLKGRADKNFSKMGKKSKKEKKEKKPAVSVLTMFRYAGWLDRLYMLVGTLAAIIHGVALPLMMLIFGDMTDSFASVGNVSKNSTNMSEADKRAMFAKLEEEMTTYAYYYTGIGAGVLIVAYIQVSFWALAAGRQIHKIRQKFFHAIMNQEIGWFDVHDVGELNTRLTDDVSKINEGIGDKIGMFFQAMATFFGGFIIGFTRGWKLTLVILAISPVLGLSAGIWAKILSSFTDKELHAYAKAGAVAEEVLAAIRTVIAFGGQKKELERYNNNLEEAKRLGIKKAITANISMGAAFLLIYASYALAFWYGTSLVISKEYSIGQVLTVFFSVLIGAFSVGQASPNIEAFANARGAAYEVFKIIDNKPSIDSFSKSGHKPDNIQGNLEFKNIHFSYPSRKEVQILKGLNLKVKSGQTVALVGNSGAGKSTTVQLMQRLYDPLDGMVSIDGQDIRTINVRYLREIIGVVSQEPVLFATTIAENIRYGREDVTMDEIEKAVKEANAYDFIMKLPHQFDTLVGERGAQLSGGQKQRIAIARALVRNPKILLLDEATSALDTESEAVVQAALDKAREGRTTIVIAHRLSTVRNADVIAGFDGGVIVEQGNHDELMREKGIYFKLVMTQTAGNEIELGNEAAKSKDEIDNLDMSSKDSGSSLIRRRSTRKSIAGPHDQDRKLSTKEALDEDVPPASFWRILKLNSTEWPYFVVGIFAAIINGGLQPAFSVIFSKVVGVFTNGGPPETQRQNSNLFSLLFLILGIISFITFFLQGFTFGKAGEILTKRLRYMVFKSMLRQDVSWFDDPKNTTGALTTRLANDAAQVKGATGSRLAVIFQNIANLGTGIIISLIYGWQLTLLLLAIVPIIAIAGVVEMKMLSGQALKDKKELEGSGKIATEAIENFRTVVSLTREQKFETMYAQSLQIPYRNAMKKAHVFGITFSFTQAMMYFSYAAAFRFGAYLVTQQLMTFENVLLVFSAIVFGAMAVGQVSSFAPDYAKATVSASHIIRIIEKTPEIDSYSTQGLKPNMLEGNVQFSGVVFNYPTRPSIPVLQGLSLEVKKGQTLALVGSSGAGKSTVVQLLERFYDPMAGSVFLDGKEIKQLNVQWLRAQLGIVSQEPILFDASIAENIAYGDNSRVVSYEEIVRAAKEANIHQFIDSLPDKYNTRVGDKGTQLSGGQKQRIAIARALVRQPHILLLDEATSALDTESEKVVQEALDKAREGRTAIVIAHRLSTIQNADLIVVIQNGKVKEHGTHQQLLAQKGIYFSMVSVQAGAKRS

With `Cc1cc(C)c(-c2cc(NC(=O)CSc3n[nH]c(C4CC4)n3)n(-c3ccccc3)n2)cc1C` [SMU-29, 2-[(5-cyclopropyl-1H-1,2,4-triazol-3-yl)sulfanyl]-N-[2-phenyl-5-(2,4,5-trimethylphenyl)pyrazol-3-yl]acetamide] the IC50 (HFL1) was 48.2 ± 0.01 µM, the “Chemotherapeutic sensitivity of MDR cell line (Paclitaxel or Doxorubicin)” value (DU145-TxR) was “restores chemotherapeutic sensitivity” and the “Effect on SL-ATP binding” value [1] was “decreased the SL-ATP binding affinities”. The Sensitivity to doxorubicin (A2780) was “hyper-sensitized”, the “Effect on stimulated ATPase” value ([2]; in the presence of verapamil) was “significantly inhibit” and the “Stimulated ATPase (% of DMSO)” value ([2]; in the presence of verapamil, ± standard deviation) was 49 ± 2 % of DMSO. For the same molecule, the “Basal ATPase (% of DMSO)” value ([2]; without added transport substrate, ± standard deviation) was 95 ± 11 % of DMSO, the “Effect on SL-ANP binding” value ([3]; ESR data of Brewer et al. (2014)) was “not interfere with ATP binding” and the “Maximum ATP binding mol SL-ANP bound/mol P-gp” value ([3]; in presence of 29, taken from Brewer et al. (2014)) was 1.9 ± 0.1^1 mol SL-ANP bound/mol P-gp.
